# Laboratory results from patent publication US9161536B2, “Herbicidal compositions comprising 4-amino-3-chloro-6-(4-chloro-2-fluoro-3-methoxyphenyl)-5-fluoropyridine-2-carboxylic acid or a derivative thereof and flurtamone, diflufenican, or picolinafen” (Dow AgroSciences LLC, priority 2012, dated 2015).
# Columns and labels:
# Type in all cases: in vivo
# [1] = test system: Salsola tragus L., Russian thistle (SASKR); assay: greenhouse trial, foliar applied compositions, SASKR
# Excerpt: (§1) More specifically, the following equation is used to calculate the expected activity of mixtures containing two herbicical active ingredients: Expected=A+B−(A×B/100) • A=observed efficacy of a first active ingredient at the same concentration as used in the mixture; • B=observed efficacy of the second active ingredient (or product, which may be a combination of active ingredients) at the same concentration as used in the mixture.
# (§2) Results in Tables 1-8 are greenhouse trial results for foliar applied compositions.
# (§3) • g/ha=grams acid equivalent per hectare (g ae/ha) for Cmpd 1 and grams active ingredient per hectare (g ai/ha) for diflufenican, picolinafen, BACARA® and BACARA® FORTE • Obs=observed value • Exp=expected value as calculated by the equations set forth above in paragraph [0024]. • Cmpd 1=benzyl 4-amino-3-chloro-6-(4-chloro-2-fluoro-3-methoxyphenyl)-5-fluoropyridine-2-carboxylate
# [2] = test system: Matricaria recutita L., wild chamomile (MATCH); assay: greenhouse trial, foliar applied compositions, MATCH
# Excerpt: as §1, §2, §3
# [3] = test system: Veronica persica Poir., Persian speedwell (VERPE); assay: greenhouse trial, foliar applied compositions, VERPE
# Excerpt: as §1, §2, §3
# [4] = test system: Kochia scoparia (L.) Schrad., kochia (KCHSC); assay: greenhouse trial, foliar applied compositions, KCHSC
# Excerpt: as §1, §2, §3
# [5] = test system: Lamium purpureum L., purple deadnettle (LAMPU); assay: greenhouse trial, foliar applied compositions, LAMPU
# Excerpt: as §1, §2, §3
# [6] = test system: Viola tricolor L., wild violet (VIOTR); assay: greenhouse trial, foliar applied compositions, VIOTR
# Excerpt: as §1, §2, §3
# [7] = test system: Hordeum vulgare L., spring barley (HORVS); assay: greenhouse trial, foliar applied compositions, HORVS
# Excerpt: as §1, §2, §3
# [8] = test system: Chenpodium album L., common lambsquarters (CHEAL); assay: greenhouse trial, foliar applied compositions, CHEAL
# Excerpt: as §1, §2, §3
# [9] = test system: Cirsium arvense (L.) Scop., Canada thistle (CIRAR); assay: greenhouse trial, foliar applied compositions, CIRAR
# Excerpt: as §1, §2, §3
# [10] = test system: Triticum aestivum (spring), spring wheat (TRZAS); assay: greenhouse trial, foliar applied compositions, TRZAS
# Excerpt: as §1, §2, §3
# [11] = test system: Sinapis arvensis L., wild mustard (SINAR); assay: greenhouse trial, foliar applied compositions, SINAR
# Excerpt: as §1, §2, §3
# [12] = test system: Papaver rhoeas L., common poppy (PAPRH); assay: greenhouse trial, foliar applied compositions, PAPRH
# Excerpt: as §1, §2, §3
# [13] = test system: Galium aparine L., catchweed bedstraw (GALAP); assay: greenhouse trial, foliar applied compositions, GALAP
# Excerpt: as §1, §2, §3
# [14] = test system: Stellaria media (L.) Vill., common chickweed (STEME); assay: greenhouse trial, foliar applied compositions, STEME
# Excerpt: as §1
# In some embodiments, the methods provided herein are utilized to control undesirable vegetation in cereals. In certain embodiments, the undesirable vegetation is Alopecurus myosuroides Huds. (blackgrass, ALOMY), Apera spica venti (L.) Beauv. (windgrass, APESV), Avena fatua L. (wild oat, AVEFA), Bromus tectorum L. (downy brome, BROTE), Lolium multiflorum Lam. (Italian ryegrass, LOLMU), Lolium rigidum (rigid ryegrass), Lolium multiflorum subsp. Gaudini (annual ryegrass, LOLMG), Phalaris minor Retz. […]
# as §3
compound,measurement,setting,value
"O=C(Nc1ccc(F)cc1)c1cccc(Oc2cccc(C(F)(F)F)c2)n1 [Picolinafen, N-(4-fluorophenyl)-6-[3-(trifluoromethyl)phenoxy]-2-pyridinecarboxamide]",SASKR Obs,[1]; Picolinafen 50 g ai/ha alone,30
same,MATCH Obs,[2]; Picolinafen 50 g ai/ha alone,0
same,VERPE Obs,[3]; Picolinafen 50 g ai/ha alone,10
same,KCHSC Obs,[4]; Picolinafen 50 g ai/ha alone,20
same,LAMPU Obs,[5]; Picolinafen 50 g ai/ha alone,0
same,VIOTR Obs,[6]; Picolinafen 50 g ai/ha alone,10
same,HORVS Obs,[7]; Picolinafen 50 g ai/ha alone,10
same,CHEAL Obs,[8]; Picolinafen 50 g ai/ha alone,70
same,CIRAR Obs,[9]; Picolinafen 50 g ai/ha alone,15
same,TRZAS Obs,[10]; Picolinafen 50 g ai/ha alone,10
same,SINAR Obs,[11]; Picolinafen 50 g ai/ha alone,70
"O=C(Nc1ccc(F)cc1F)c1cccnc1Oc1cccc(C(F)(F)F)c1 [Diflufenican, N-(2,4-difluorophenyl)-2-[3-(trifluoromethyl)phenoxy]-3-pyridinecarboxamide]",SASKR Obs,[1]; Diflufenican 50 g ai/ha alone,70
same,MATCH Obs,[2]; Diflufenican 50 g ai/ha alone,0
same,VERPE Obs,[3]; Diflufenican 50 g ai/ha alone,10
same,KCHSC Obs,[4]; Diflufenican 50 g ai/ha alone,40
same,LAMPU Obs,[5]; Diflufenican 50 g ai/ha alone,0
same,VIOTR Obs,[6]; Diflufenican 50 g ai/ha alone,15
same,PAPRH Obs,[12]; Diflufenican 50 g ai/ha alone,0
same,HORVS Obs,[7]; Diflufenican 50 g ai/ha alone,5
same,CHEAL Obs,[8]; Diflufenican 50 g ai/ha alone,10
same,CIRAR Obs,[9]; Diflufenican 50 g ai/ha alone,0
same,TRZAS Obs,[10]; Diflufenican 50 g ai/ha alone,5
same,GALAP Obs,[13]; Diflufenican 50 g ai/ha alone,0
same,SINAR Obs,[11]; Diflufenican 50 g ai/ha alone,30
"COc1c(Cl)ccc(-c2nc(C(=O)OCc3ccccc3)c(Cl)c(N)c2F)c1F [Cmpd 1, benzyl 4-amino-3-chloro-6-(4-chloro-2-fluoro-3-methoxyphenyl)-5-fluoropyridine-2-carboxylate]",SASKR Obs,[1]; Cmpd 1 2.5 g ae/ha alone,10
same,SASKR Obs,[1]; Cmpd 1 5 g ae/ha alone,60
same,MATCH Obs,[2]; Cmpd 1 2.5 g ae/ha alone,0
same,MATCH Obs,[2]; Cmpd 1 5 g ae/ha alone,10
same,VERPE Obs,[3]; Cmpd 1 2.5 g ae/ha alone,0
same,VERPE Obs,[3]; Cmpd 1 5 g ae/ha alone,5
same,KCHSC Obs,[4]; Cmpd 1 2.5 g ae/ha alone,20
same,KCHSC Obs,[4]; Cmpd 1 5 g ae/ha alone,40
same,STEME Obs,[14]; Cmpd 1 2.5 g ae/ha alone,20
same,STEME Obs,[14]; Cmpd 1 5 g ae/ha alone,30
same,LAMPU Obs,[5]; Cmpd 1 2.5 g ae/ha alone,80
same,LAMPU Obs,[5]; Cmpd 1 5 g ae/ha alone,80
same,VIOTR Obs,[6]; Cmpd 1 2.5 g ae/ha alone,10
same,VIOTR Obs,[6]; Cmpd 1 5 g ae/ha alone,10
same,PAPRH Obs,[12]; Cmpd 1 2.5 g ae/ha alone,20
same,PAPRH Obs,[12]; Cmpd 1 5 g ae/ha alone,70
same,HORVS Obs,[7]; Cmpd 1 2.5 g ae/ha alone,0
same,HORVS Obs,[7]; Cmpd 1 5 g ae/ha alone,0
same,CHEAL Obs,[8]; Cmpd 1 2.5 g ae/ha alone,50
same,CHEAL Obs,[8]; Cmpd 1 5 g ae/ha alone,60
same,CIRAR Obs,[9]; Cmpd 1 2.5 g ae/ha alone,10
same,CIRAR Obs,[9]; Cmpd 1 5 g ae/ha alone,20
same,TRZAS Obs,[10]; Cmpd 1 2.5 g ae/ha alone,0
same,TRZAS Obs,[10]; Cmpd 1 5 g ae/ha alone,5
same,GALAP Obs,[13]; Cmpd 1 2.5 g ae/ha alone,60
same,GALAP Obs,[13]; Cmpd 1 5 g ae/ha alone,60
same,SINAR Obs,[11]; Cmpd 1 2.5 g ae/ha alone,60
same,SINAR Obs,[11]; Cmpd 1 5 g ae/ha alone,70
